One assay has as its target human S1P1 (EDG-1) (Homo sapiens (Human), UniProt P21453). Description: Confirmation test of antagonistic activity for human S1P1 receptor (35S-GTP binding, cell membranes). The class given is biochemical. The settings on record: inhibition of 35S-GTP binding induced by S1P1 receptor selective agonist; HEK293 membranes expressing human S1P1. The protocol:
Confirmation Test of Antagonistic Activity for Human S1P1 Receptor
Test compounds were tested by reduction of functional binding activity of ^35S-GTP (guanosine 5′-O-[gamma-thio] triphosphate, PerkinElmer) to G protein using cell membranes expressing human S1P1 (EDG-1). S1P1-pcDNA3.1/V5-His-Topo vector was prepared by inserting cDNA (NM_001400) encoding human S1P1 into the expression vector, pcDNA3.1/V5-His-Topo (registered trademark) (Invitrogen). Next, the above S1P1-pcDNA3.1 vector was transfected into HEK293 cells by Lipofectamine2000 (registered trademark) (Invitrogen). The transfected cells were incubated with D-MEM liquid medium each containing 10% FBS (Fetal bovine serum), 100 U/mL penicillin, 100 μg/mL streptomycin and 1 mg/mL Geneticin (registered trademark) (Invitrogen) in an incubator under the condition of 5% CO2 at 37° C. and Geneticin (registered mark)-resistant cell line stably expressing S1P1 were obtained. The obtained stably S1P1-expressing cells were incubated with D-MEM liquid medium each containing 10% FBS and 0.5 mg/mL Geneticin (registered trademark) in an incubator under the condition of 5% CO2 at 37° C. The cells grown to confluence were harvested by a buffer solution containing 50 mM Tris, 2 mM EDTA (ethylmediaminetetraacetic acid) and 125 mM sodium chloride, and centrifuged at 1880×g, 4° C. for 10 minutes. After a supernatant was removed, a cell pellet was resuspended by the same buffer solution. For making cell membranes fragile, this cell suspension was frozen at −80° C. and then thawed. The cells were centrifuged at 1880×g, 4° C. for 10 minutes, and a supernatant was removed. The cell pellet was suspended by adding the same buffer solution and a fracture solution (10 mM sodium bicarbonate and 5 mM EDTA, pH 7.5) at a ratio of 2:1. The cells were fractured by subjecting the cell suspension to ultrasonication, and a cell membrane fraction was isolated by centrifugation at 1880×g, 4° C. for 10 minutes and ultracentrifugation of the supernatant at 80000×g, 4° C. for 30 minutes. A pellet of the cell membrane fraction was suspended by the fracture solution containing protease inhibitor cocktail (Roche) and stored at −80° C. until use. A protein concentration of the cell membrane fraction was determined using BCA Protein Assay Kit (Pierce) in accordance with an attached protocol.
Inhibitory activity evaluation was performed by multi-screen (registered trademark) HTS 96-well plate (Millipore) using the cell membrane fraction stably expressing S1P1 obtained by the above operation. 25 μL of assay solution (50 mM Tris, 100 mM sodium chloride, 5 mM magnesium chloride, 1 mM EDTA, 1 mM DTT (dithiothreitol), 10 μM GDP (guanosine diphosphate) and 0.5% BSA (bovine serum albumin), pH 7.4), 25 μL of test compounds solution diluted by assay solution and 25 μL of the membrane fraction (0.2 μg protein/μL) were added to each well, and the mixture was gently shaken at room temperature: for 30 minutes. Then, 25 μL of ^35S-GTP, and 25 μL of 50 nM S1P1 receptor selective agonist (1-[4-(4-phenyl-5-trifluoromethylthiophen-2-ylmethoxy)benzyl]azetidine-3-carboxylic acid, “J. Med. Chem.”, 2004, vol. 47, pp. 6662-6665, compound 18) were added to each well, respectively, and it was reacted at room temperature for 60 minutes. After the reaction, a reaction solution of each well was suction-filtered. After suction filtration, ice-colded wash solution (50 mM Tris, 100 mM sodium chloride, […] and 1 mM EDTA, pH 7.4) was added to each well, and moreover filters were washed by suction filtration. This wash procedure was performed three times. A bottom of the plate containing the filters was dried at 60° C. After drying, 30 μL of MicroScinti-40 (PerkinElmer) was added to each well, and the radioactivity adsorbed on the filter was determined by TopCount NXT (registered trademark) (PerkinElmer) after shaking for 30 minutes at room temperature. […]

The subject of a further assay is blood lymphocytes. Description: Confirmation test for reduction effects on the number of lymphocytes. Type of assay: in vivo, Male Sprague-Dawley rats. The settings on record: rat, oral; for Number of lymphocytes (% of Vehicle) After 6 hours: 6 hours after administration; for Number of lymphocytes (% of Vehicle) After 24 hours: 24 hours after administration; for Number of lymphocytes (% of Vehicle) After 48 hours: 48 hours after administration. The protocol:
Confirmation Test for Reduction Effects on the Number of Lymphocytes
Reduction effects on the number of blood lymphocytes by test compounds were confirmed using Male Sprague-Dawley rats (Japan SLC, 7-weeks-old in use). Administration solutions for test compounds were prepared on hot-plate at 50° C. After test compounds were dissolved by DMSO (dimethyl sulfoxide, Wako Pure Chemicals) of 1/10 volume of the total volume, WellSolve (Celeste) of 1/10 volume of the total volume was added to this solution. Further, distilled water (Otsuka Pharmaceutical Factory) of 8/10 volume of the total volume was added to this solution, and the administration solutions for test compounds were prepared. A solution, prepared in the same volume ratios of DMSO. WellSolve and distilled water as the administration solution for test compounds, was used as a solvent (Vehicle). Vehicle or test compound was administered orally to rats at 1 mL/body. After 6, 24 and 48 hours from administration of vehicle or test compounds, rats were held on the board at supine position under inhalation anesthesia with isoflurane (Abbott Japan). Blood samples (200 to 250 μL) were collected from the cervical vein of this rat using 1 mL syringes with needles of 25G. The collected blood samples were transferred to a microtube treated with EDTA-2K (Japan Becton Dickinson), and stored at room temperature after gently mixing with inversion. The number of lymphocytes was measured by ADVIA (registered mark) (Bayer), which is a multi-parameter automated blood cell counter using this blood samples. The average number of lymphocytes in vehicle-treated group (vehicle group) was defined as 100%, and the average number of lymphocytes in each test compound-treated group was calculated as % of vehicle. As Comparative Example 2, 1-{5-[1-(4-chloro-3-methyl-phenyl)-propylamino]-2-methyl-benzyl}-azetidine-3-carboxylic acid (patent literature 1, Example 4) was evaluated as well.

Experimental findings from patent US9718771B2, “Aniline derivative, pharmaceutical composition containing same, and use thereof” (Kissei Pharmaceutical Co., Ltd., priority 2014, dated 2017) are described below.

Chain of human S1P1 (EDG-1) (P21453 whole entry): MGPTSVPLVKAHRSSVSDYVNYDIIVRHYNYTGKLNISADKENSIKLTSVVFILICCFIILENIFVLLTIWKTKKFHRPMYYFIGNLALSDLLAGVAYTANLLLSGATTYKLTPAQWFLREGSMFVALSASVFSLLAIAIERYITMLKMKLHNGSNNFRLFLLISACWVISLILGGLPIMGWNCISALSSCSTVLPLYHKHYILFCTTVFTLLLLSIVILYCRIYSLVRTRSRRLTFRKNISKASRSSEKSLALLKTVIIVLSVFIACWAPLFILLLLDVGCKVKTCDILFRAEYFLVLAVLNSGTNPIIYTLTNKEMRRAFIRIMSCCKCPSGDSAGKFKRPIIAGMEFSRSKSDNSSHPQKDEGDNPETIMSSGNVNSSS

Compound `CCN(c1ccc(Cl)c(C(F)(F)F)c1)C1CCc2c1ccc(C)c2CN1CC(C(=O)O)C1` (centres unmarked) [Compound 2-8, 1-{1-[(4-Chloro-3-trifluoromethylphenyl)(ethyl)amino]-5-methylindan-4-ylmethyl}azetidine-3-carboxylic acid] came in with a half-maximal inhibitory concentration (IC50) at human S1P1 (EDG-1) of 2.9 nM. Besides, in the assay with blood lymphocytes (1 mg/kg), the “Number of lymphocytes (% of Vehicle) After 6 hours” value is 15.1 % of Vehicle, the “Number of lymphocytes (% of Vehicle) After 24 hours” value is listed as 34.5 % of Vehicle and the “Number of lymphocytes (% of Vehicle) After 48 hours” value is reported as 87.7 % of Vehicle. Also, in the assay with blood lymphocytes (10 mg/kg), the “Number of lymphocytes (% of Vehicle) After 6 hours” value was 13.7 % of Vehicle, the “Number of lymphocytes (% of Vehicle) After 24 hours” value is given as 12.3 % of Vehicle and the “Number of lymphocytes (% of Vehicle) After 48 hours” value is 33.4 % of Vehicle.
As to `CCC(Nc1ccc(C)c(CN2CC(C(=O)O)C2)c1)c1ccc(Cl)c(C)c1` (centres unmarked) [Comparative Example 2, 1-{5-[1-(4-chloro-3-methyl-phenyl)-propylamino]-2-methyl-benzyl}-azetidine-3-carboxylic acid, reference compound], in the assay with blood lymphocytes (1 mg/kg), the “Number of lymphocytes (% of Vehicle) After 6 hours” value is 39.9 % of Vehicle, the “Number of lymphocytes (% of Vehicle) After 24 hours” value is listed as 82.3 % of Vehicle and the “Number of lymphocytes (% of Vehicle) After 48 hours” value was 109.6 % of Vehicle. In the assay on blood lymphocytes (10 mg/kg), the “Number of lymphocytes (% of Vehicle) After 6 hours” value is listed as 16.8 % of Vehicle, the “Number of lymphocytes (% of Vehicle) After 24 hours” value is listed as 94.0 % of Vehicle and the “Number of lymphocytes (% of Vehicle) After 48 hours” value is given as 110.3 % of Vehicle. The “time course of the number of lymphocytes in blood (in words)” value in the assay on blood lymphocytes (6 to 48 hours after administration) is reported as “transient reduction of the number of lymphocytes in blood”.
`CCN(c1ccc(Cl)c(C)c1)C1CCc2c(CN3CC(C(=O)O)C3)cc(C)cc21` (centres unmarked) [Compound 2-22] showed an IC50 at human S1P1 (EDG-1) of 5 nM.
As to `Cc1cc(N(Cc2ccc(C)c(CN3CC(C(=O)O)C3)c2)C(C)C)ccc1Cl` [Compound 2-3], on human S1P1 (EDG-1), the IC50 is 2.8 nM.
For `CCN(c1ccc(Cl)c(C)c1)C1CCc2c1ccc(OC)c2CN1CC(C(=O)O)C1` (centres unmarked) [Compound 2-18], the IC50 at human S1P1 (EDG-1) came out at 4.7 nM.
As to `CCC(c1ccc(C)c(CN2CC(C(=O)O)C2)c1)N(CC)c1ccc(Cl)c(C(F)(F)F)c1` (centres unmarked) [Compound 2-45, 1-(5-{1-[(4-Chloro-3-trifluoromethylphenyl)(ethyl)amino]propyl}-2-methylbenzyl)azetidine-3-carboxylic acid], the IC50 at human S1P1 (EDG-1) worked out at 0.8 nM.
On human S1P1 (EDG-1), `CCC(c1cccc(CN2CC(C(=O)O)C2)c1)N(CC)c1ccc(Cl)c(C)c1` (centres unmarked) [Compound 2-12] displayed an IC50 of 6.8 nM.
`CCCN(c1ccc(Cl)c(C)c1)C(C)c1ccc(C)c(CN2CC(C(=O)O)C2)c1` (centres unmarked) [Compound 2-14, 1-(5-{1-[(4-Chloro-3-methylphenyl)(propyl)amino]ethyl}-2-methylbenzyl)-azetidine-3-carboxylic acid]: the IC50 on human S1P1 (EDG-1) worked out at 1.7 nM.
On to `CCN(Cc1cccc(CN2CC(C(=O)O)C2)c1C)c1ccc(Cl)c(C)c1` [Compound 2-4], for which the concentration for half-maximal inhibition (IC50) at human S1P1 (EDG-1) is 3.9 nM.
Compound `CCN(c1ccc(Cl)c(C(F)(F)F)c1)C1CCc2c(CN3CC(C(=O)O)C3)cccc21` (centres unmarked) [Compound 2-24] registered an IC50 on human S1P1 (EDG-1) of 3.7 nM.
As to `CCN(c1ccc(Cl)c(C)c1)C(C)c1ccc(F)c(CN2CC(C(=O)O)C2)c1` (centres unmarked) [Compound 2-31, 1-(5-{1-[(4-Chloro-3-methylphenyl)(ethyl)amino]ethyl}-2-fluorobenzyl)-azetidine-3-carboxylic acid], the IC50 at human S1P1 (EDG-1) stood at 5.7 nM.

What is called IC50 is the midpoint of a concentration-inhibition curve. A lower IC50 goes with higher potency.
